Like-named read-outs stand apart in the source and are kept apart here.

Results on two molecules are retold here after patent US20230277632A1, “MODIFIED PlySs2 LYSINS AND ANTIBIOTIC COMBINATIONS FOR USE AGAINST GRAM-POSITIVE BACTERIA” (ContraFect Corporation, priority 2020, published 2023).

The subject of the assay is MSSA strains. In words: Checkerboard assay: pp296 or CF-301 with oxacillin. The following applies: for MIC: Staphylococcus aureus, read-out: Single agent MICs; for FIC / MIC in combination: pp296 + oxacillin; for MIC in combination: unit assumed; for ΣFICmin: with oxacillin. Type of assay: cell-based, Staphylococcus aureus. An excerpt: In some embodiments, the present modified lysin polypeptides reduce the minimum inhibitory concentration (MIC) of an antibiotic. Any known method to assess MIC may be used. In some embodiments, a checkerboard assay is used to determine the effect of a lysin on antibiotic concentration. The checkerboard assay is based on a modification of the CLSI method for MIC determination by broth microdilution (See Clinical and Laboratory Standards Institute (CLSI), CLSI. 2015. Methods for Dilution Antimicrobial Susceptibility Tests for Bacteria That Grow Aerobically; Approved Standard-10th Edition. Clinical and Laboratory Standards Institute, Wayne, Pa., which is herein incorporated by reference in its entirety and Ceri et al. 1999. J. Clin. Microbiol. 37: 1771-1776, which is also herein incorporated by reference in its entirety).
Checkerboards are constructed by first preparing columns of e.g., a 96-well polypropylene microtiter plate, wherein each well has the same amount of antibiotic diluted 2-fold along the horizontal axis. […] The lysin and antibiotic dilutions are then combined, so that each column has a constant amount of antibiotic and doubling dilutions of lysin, while each row has a constant amount of lysin and doubling dilutions of antibiotic. Each well thus has a unique combination of lysin and antibiotic. Bacteria are added to the drug combinations at a given concentration. […] Summation fractional inhibitory concentrations (ΣFICs) are calculated for each drug and the minimum ΣFIC value (ΣFICmin) is used to determine the effect of the lysin/antibiotic combination.
The ability of CF-301 or a modified lysin polypeptide pp296 to synergize with oxacillin was assessed using a checkerboard analysis. For the checkerboard assay, a total of 50 μl of Mueller-Hinton broth is distributed into each well of microdilution plates. Then, a first antibiotic of a combination is serially diluted along the ordinate, while a second drug is diluted along the abscissa. An inoculum equal to a 0.5 McFarland turbidity standard is prepared from each bacterial isolate in Mueller-Hinton broth. Each microtiter well is then inoculated with 100 μl of a bacterial inoculum of 5×10^5 CFU/ml, and the plates are incubated at 37° C. for 18 h under aerobic conditions. The resulting checkerboard contains each combination of two antibiotics, with wells that contain the highest concentration of each antibiotic at opposite corners. […] To quantify the interactions between the antibiotics being tested, the FIC index (the combination of antibiotics that produced the greatest change from the individual antibiotic's MIC) value is calculated for each strain and antibiotic combination as follows:
(A/MICA)+(B/MICB)=FICA+FICB=FIC index,
where A and B are the MIC of each agent in combination in a single well, and MICA and MICB are the MIC of each drug when used individually. The combination is considered strongly synergistic when the FIC index is ≤0.5 and synergistic when the FIC index is >0.5-<1.

Consider `Cc1onc(-c2ccccc2)c1C(=O)N[C@@H]1C(=O)N2[C@@H]1SC(C)(C)[C@@H]2C(=O)O` [Oxacillin, oxacillin], for which the MIC (ATCC 29213 / MSSA, MSSA ATCC 29213) was determined as 0.5 µg/mL; the MIC (MSSA, MSSA JMI-6625) came to 1 µg/mL; the MIC (MSSA, MSSA JMI-6885) stood at 1 µg/mL; the MIC (MSSA, MSSA JMI-6886) came to 1 µg/mL; the MIC (MSSA, MSSA JMI-7054) is 1 µg/mL; the MIC (MSSA, MSSA JMI-7160) turned out to be 1 µg/mL. Further, the MIC (MSSA, MSSA JMI-38739) amounted to 0.5 µg/mL; the MIC (MSSA, MSSA JMI-38986) is 0.5 µg/mL; the MIC (MSSA, MSSA JMI-40671) came to 0.5 µg/mL; the MIC (MSSA, MSSA JMI-46142) is 0.5 µg/mL. Moreover, the FIC is, setting by setting: (MSSA ATCC 29213) 0.25; (MSSA JMI-6625) 0.25; (MSSA JMI-6885) 0.125; (MSSA JMI-6886) 0.25; (MSSA JMI-7054) 0.25; (MSSA JMI-7160) 0.25. Also, the FIC runs as follows: (MSSA JMI-38739) 0.25; (MSSA JMI-38986) 0.25; (MSSA JMI-40671) 0.125; (MSSA JMI-46142) 0.25. Besides, the MIC in combination reads like this: (MSSA ATCC 29213) 0.125 µg/mL; (MSSA JMI-6625) 0.25 µg/mL; (MSSA JMI-6885) 0.125 µg/mL; (MSSA JMI-6886) 0.25 µg/mL; (MSSA JMI-7054) 0.25 µg/mL; (MSSA JMI-7160) 0.25 µg/mL. Also, the MIC in combination was 0.125 µg/mL (MSSA JMI-38739), 0.125 µg/mL (MSSA JMI-38986), 0.0625 µg/mL (MSSA JMI-40671) and 0.125 µg/mL (MSSA JMI-46142).

B1: CF-301: Lysin CF-301, comparator lysin in the oxacillin checkerboard analysis (protein)
chain: MTTVNEALNNVRAQVGSGVSVGNGECYALASWYERMISPDATVGLGAGVGWVSGAIGDTISAKNIGSSYNWQANGWTVSTSGPFKAGQIVTLGATPGNPYGHVVIVEAVDGDRLTILEQNYGGKRYPVRNYYSAASYRQQVVHYITPPGTVAQSAPNLAGSRSYRETGTMTVTVDALNVRRAPNTSGEIVAVYKRGESFDYDTVIIDVNGYVWVSYIGGSGKRNYVATGATKDGKRFGNAWGTFK
B1: the ΣFICmin reads like this: (MSSA ATCC 29213) 0.5; (MSSA JMI-6625) 0.375; (MSSA JMI-6885) 0.5; (MSSA JMI-6886) 0.5; (MSSA JMI-7054) 0.5; (MSSA JMI-7160) 0.5. In addition, the ΣFICmin (MSSA JMI-38739) came out at 0.5, the ΣFICmin (MSSA JMI-38986) is 0.375, the ΣFICmin (MSSA JMI-40671) is listed as 0.3125 and the ΣFICmin (MSSA JMI-46142) was determined as 0.375.
